Experiments:
[1] = system: murine leukemia L1210 cells; assay: Growth inhibition test on cultured murine leukemia L1210 cells; format: cell-based; conditions: 48 hours, 37° C., Trypan blue viability
Summary of the method: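 L1210 cells (1×10^5) exposed to graded compound concentrations in RPMI 1640 with 10% fetal calf serum, 37° C, 5% CO2, 48 h. Viability by 0.17% Trypan blue staining, relative to untreated control cells.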

murine leukemia L1210 = assay: Antitumor activity test on murine leukemia L1210 in vivo; parameters: species or system male BDF1 mice; conditions: days 1, 5, 9
Summary of the method: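 Intraperitoneal L1210 model: 1×10^6 cells inoculated i.p. into 6-week-old male BDF1 mice (21±3 g) on day 0, seven per group. Compounds in 0.5% CMC given i.p. on days 1, 5 and 9; vehicle-only controls. T/C % from mean survival time of treated over control.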

[2] = Test for water solubility; format: physicochemical; conditions: water
Text: 3. Test for water solubility
A standard plot of UV absorbance(220 nm) vs. concentration was made; and employed to determine water-solubility.
The mixture was then passed through a 0.45 micron disposable membrane filter before dilution and UV measurement.

ICR mice = assay: Acute toxicity test; format: in vivo; parameters: Lethality: unit not given here; conditions: for Lethality: 10080 min
Description: 7-week-old ICR mice(male: 34±2 g; female: 31±2 g) were fed with solid food and water under the condition of 23±1° C. temperature and 65±5% humidity before the test.
Each treatment group consisted of 6 mice. The test compounds were administered intraperitoneally.
For 7 days after the administration, the appearance and the fate of the tested animals were recorded. The dead animals were subjected to autopsy and their visible pathological changes were observed. Their viscerals were stored in 10% formalin solution.

Compound: CC1(C)O[C@H](CN)[C@@H](CN)O1.O=C1C[O][Pt][O]1 [Example 2, (glycolato-O,O')[(4R,5R)-4,5-bis(aminomethyl)-2,2-dimethyl-1,3-dioxolane]platinum(II)]
- IC50 (concentration required for 50% inhibition of growth) [1]: 0.15 µg/mL
- T/C (%) (murine leukemia L1210; 3.1 mg/kg i.p.): 112%
- T/C (%) (murine leukemia L1210; 6.2 mg/kg i.p.): 179%
- T/C (%) (murine leukemia L1210; 12.5 mg/kg i.p.): 201%
- T/C (%) (murine leukemia L1210; 25 mg/kg i.p.): toxic
- T/C (%) (murine leukemia L1210; 50 mg/kg i.p.): toxic
- Solubility in water [2]: 17.5 mg/mL
- Number of dead mice for 7 days (ICR mice; female, 25.0 mg/kg i.p.): 0/6
- Number of dead mice, 1st day (ICR mice; female, 25.0 mg/kg i.p.): 0/6
- Number of dead mice for 7 days (ICR mice; female, 32.5 mg/kg i.p.): 3/6
- Number of dead mice, 1st day (ICR mice; female, 32.5 mg/kg i.p.): 0/6
- Number of dead mice, 3rd day (ICR mice; female, 32.5 mg/kg i.p.): 2/6
- Number of dead mice, 4th day (ICR mice; female, 32.5 mg/kg i.p.): 1/4
- Lethality (ICR mice; female, 32.5 mg/kg i.p.): 50.0
- Number of dead mice for 7 days (ICR mice; female, 42.3 mg/kg i.p.): 4/6
- Number of dead mice, 1st day (ICR mice; female, 42.3 mg/kg i.p.): 0/6
- Number of dead mice, 3rd day (ICR mice; female, 42.3 mg/kg i.p.): 3/6
- Number of dead mice, 4th day (ICR mice; female, 42.3 mg/kg i.p.): 1/3
- Lethality (ICR mice; female, 42.3 mg/kg i.p.): 66.7
- Number of dead mice for 7 days (ICR mice; female, 55.0 mg/kg i.p.): 6/6
- Number of dead mice, 1st day (ICR mice; female, 55.0 mg/kg i.p.): 0/6
- Number of dead mice, 3rd day (ICR mice; female, 55.0 mg/kg i.p.): 4/6
- Number of dead mice, 4th day (ICR mice; female, 55.0 mg/kg i.p.): 1/2
- Number of dead mice, 5th day (ICR mice; female, 55.0 mg/kg i.p.): 1/1
- Lethality (ICR mice; female, 55.0 mg/kg i.p.): 100.0
- Number of dead mice for 7 days (ICR mice; female, 71.4 mg/kg i.p.): 6/6
- Number of dead mice, 1st day (ICR mice; female, 71.4 mg/kg i.p.): 0/6
- Number of dead mice, 3rd day (ICR mice; female, 71.4 mg/kg i.p.): 4/6
- Number of dead mice, 4th day (ICR mice; female, 71.4 mg/kg i.p.): 2/2
- Lethality (ICR mice; female, 71.4 mg/kg i.p.): 100.0
- Number of dead mice for 7 days (ICR mice; male, 25.0 mg/kg i.p.): 0/6
- Number of dead mice, 1st day (ICR mice; male, 25.0 mg/kg i.p.): 0/6
- Number of dead mice for 7 days (ICR mice; male, 32.5 mg/kg i.p.): 3/6
- Number of dead mice, 1st day (ICR mice; male, 32.5 mg/kg i.p.): 0/6
- Number of dead mice, 3rd day (ICR mice; male, 32.5 mg/kg i.p.): 1/6
- Number of dead mice, 4th day (ICR mice; male, 32.5 mg/kg i.p.): 1/5
- Number of dead mice, 5th day (ICR mice; male, 32.5 mg/kg i.p.): 1/4
- Lethality (ICR mice; male, 32.5 mg/kg i.p.): 50.0
- Number of dead mice for 7 days (ICR mice; male, 42.3 mg/kg i.p.): 5/6
- Number of dead mice, 1st day (ICR mice; male, 42.3 mg/kg i.p.): 0/6
- Number of dead mice, 3rd day (ICR mice; male, 42.3 mg/kg i.p.): 3/6
- Number of dead mice, 4th day (ICR mice; male, 42.3 mg/kg i.p.): 2/3
- Lethality (ICR mice; male, 42.3 mg/kg i.p.): 83.3
- Number of dead mice for 7 days (ICR mice; male, 55.0 mg/kg i.p.): 6/6
- Number of dead mice, 1st day (ICR mice; male, 55.0 mg/kg i.p.): 0/6
- Number of dead mice, 3rd day (ICR mice; male, 55.0 mg/kg i.p.): 4/6
- Number of dead mice, 4th day (ICR mice; male, 55.0 mg/kg i.p.): 1/2
- Number of dead mice, 5th day (ICR mice; male, 55.0 mg/kg i.p.): 1/1
- Lethality (ICR mice; male, 55.0 mg/kg i.p.): 100.0
- Number of dead mice for 7 days (ICR mice; male, 71.4 mg/kg i.p.): 6/6
- Number of dead mice, 1st day (ICR mice; male, 71.4 mg/kg i.p.): 0/6
- Number of dead mice, 3rd day (ICR mice; male, 71.4 mg/kg i.p.): 4/6
- Number of dead mice, 4th day (ICR mice; male, 71.4 mg/kg i.p.): 2/2
- Lethality (ICR mice; male, 71.4 mg/kg i.p.): 100.0

Compound: NC[C@H]1OC2(CCCC2)O[C@@H]1CN.O=C1C[O][Pt][O]1 [Example 3, (glycolato-O,O')[(4R,5R)-4,5-bis(aminomethyl)-1,3-dioxolane-2-spiro-1'-cyclopentane]platinum (II)]
- IC50 (concentration required for 50% inhibition of growth) [1]: 0.10 µg/mL
- T/C (%) (murine leukemia L1210; 3.1 mg/kg i.p.): 154%
- T/C (%) (murine leukemia L1210; 6.2 mg/kg i.p.): 161%
- T/C (%) (murine leukemia L1210; 12.5 mg/kg i.p.): 295%
- T/C (%) (murine leukemia L1210; 25 mg/kg i.p.): toxic
- T/C (%) (murine leukemia L1210; 50 mg/kg i.p.): toxic
- Solubility in water [2]: 5.8 mg/mL
- Number of dead mice for 7 days (ICR mice; female, 25.0 mg/kg i.p.): 0/6
- Number of dead mice, 1st day (ICR mice; female, 25.0 mg/kg i.p.): 0/6
- Number of dead mice for 7 days (ICR mice; female, 32.5 mg/kg i.p.): 0/6
- Number of dead mice, 1st day (ICR mice; female, 32.5 mg/kg i.p.): 0/6
- Number of dead mice for 7 days (ICR mice; female, 42.3 mg/kg i.p.): 2/6
- Number of dead mice, 1st day (ICR mice; female, 42.3 mg/kg i.p.): 0/6
- Number of dead mice, 4th day (ICR mice; female, 42.3 mg/kg i.p.): 1/6
- Number of dead mice, 5th day (ICR mice; female, 42.3 mg/kg i.p.): 1/5
- Lethality (ICR mice; female, 42.3 mg/kg i.p.): 33.3
- Number of dead mice for 7 days (ICR mice; female, 55.0 mg/kg i.p.): 5/6
- Number of dead mice, 1st day (ICR mice; female, 55.0 mg/kg i.p.): 0/6
- Number of dead mice, 3rd day (ICR mice; female, 55.0 mg/kg i.p.): 4/6
- Number of dead mice, 4th day (ICR mice; female, 55.0 mg/kg i.p.): 1/2
- Lethality (ICR mice; female, 55.0 mg/kg i.p.): 83.2
- Number of dead mice for 7 days (ICR mice; female, 71.4 mg/kg i.p.): 6/6
- Number of dead mice, 1st day (ICR mice; female, 71.4 mg/kg i.p.): 0/6
- Number of dead mice, 3rd day (ICR mice; female, 71.4 mg/kg i.p.): 4/6
- Number of dead mice, 4th day (ICR mice; female, 71.4 mg/kg i.p.): 2/2
- Lethality (ICR mice; female, 71.4 mg/kg i.p.): 100.0
- Number of dead mice for 7 days (ICR mice; male, 25.0 mg/kg i.p.): 0/6
- Number of dead mice, 1st day (ICR mice; male, 25.0 mg/kg i.p.): 0/6
- Number of dead mice for 7 days (ICR mice; male, 32.5 mg/kg i.p.): 0/6
- Number of dead mice, 1st day (ICR mice; male, 32.5 mg/kg i.p.): 0/6
- Number of dead mice, 4th day (ICR mice; male, 32.5 mg/kg i.p.): 1/6
- Number of dead mice for 7 days (ICR mice; male, 42.3 mg/kg i.p.): 2/6
- Number of dead mice, 1st day (ICR mice; male, 42.3 mg/kg i.p.): 0/6
- Number of dead mice, 4th day (ICR mice; male, 42.3 mg/kg i.p.): 1/6
- Lethality (ICR mice; male, 42.3 mg/kg i.p.): 33.3
- Number of dead mice for 7 days (ICR mice; male, 55.0 mg/kg i.p.): 6/6
- Number of dead mice, 1st day (ICR mice; male, 55.0 mg/kg i.p.): 0/6
- Number of dead mice, 3rd day (ICR mice; male, 55.0 mg/kg i.p.): 4/6
- Number of dead mice, 4th day (ICR mice; male, 55.0 mg/kg i.p.): 1/2
- Number of dead mice, 5th day (ICR mice; male, 55.0 mg/kg i.p.): 1/1
- Lethality (ICR mice; male, 55.0 mg/kg i.p.): 100.0
- Number of dead mice for 7 days (ICR mice; male, 71.4 mg/kg i.p.): 6/6
- Number of dead mice, 1st day (ICR mice; male, 71.4 mg/kg i.p.): 0/6
- Number of dead mice, 3rd day (ICR mice; male, 71.4 mg/kg i.p.): 4/6
- Number of dead mice, 4th day (ICR mice; male, 71.4 mg/kg i.p.): 2/2
- Lethality (ICR mice; male, 71.4 mg/kg i.p.): 100.0

Source: patent US5395947A, “Platinum(II) complex and processes for preparing the same” (Sunkyong Industries, Ltd., priority 1991, dated 1995)
